In the NIST ThermoML archive (doi:10.1016/j.tca.2014.08.016):

Test: xn = mol fraction of the nth substance listed
Conditions: Liquid; for mass density: Buoyancy - hydrostatic balance with magnetic suspension - one sinker; for viscosity: Falling or rolling sphere viscometry

C=CCCCCCC [oct-1-ene] + C=CCCCC
Conditions | mass density [kg/m3] | viscosity [mPa·s]
298.15 K, 98 kPa, x1 = 0.2 | 685.08 | 0.317
298.15 K, 98 kPa, x1 = 0.4823 | 696.22 | 0.36
298.15 K, 98 kPa, x1 = 0.6923 | 705.6 | 0.411
298.15 K, 24510 kPa, x1 = 0.2 | 709.99 | 0.395
298.15 K, 24510 kPa, x1 = 0.4823 | 720.99 | 0.444
298.15 K, 24510 kPa, x1 = 0.6923 | 729.5 | 0.511
298.15 K, 49030 kPa, x1 = 0.2 | 727.77 | 0.473
298.15 K, 49030 kPa, x1 = 0.4823 | 736.94 | 0.537
298.15 K, 49030 kPa, x1 = 0.6923 | 745.31 | 0.618
298.15 K, 98060 kPa, x1 = 0.2 | 754.11 | 0.644
298.15 K, 98060 kPa, x1 = 0.4823 | 765.67 | 0.737
298.15 K, 98060 kPa, x1 = 0.6923 | 771.37 | 0.859
298.15 K, 196130 kPa, x1 = 0.2 | 792.06 | 1.053
298.15 K, 196130 kPa, x1 = 0.4823 | 801.39 | 1.225
298.15 K, 196130 kPa, x1 = 0.6923 | 806.92 | 1.47
302.9 K, 98 kPa, x1 = 0.6923 | 703 | 0.396
303.67 K, 98 kPa, x1 = 0.4823 | 692.48 | 0.347
305.25 K, 98 kPa, x1 = 0.2 | 679.54 | 0.304
312.9 K, 98 kPa, x1 = 0.6923 | 696.34 | 0.36
313.35 K, 98 kPa, x1 = 0.4823 | 685.54 | 0.319
313.65 K, 98 kPa, x1 = 0.2 | 672.69 | 0.283
322.39 K, 196130 kPa, x1 = 0.6923 | 796.19 | 1.133
322.63 K, 98060 kPa, x1 = 0.6923 | 759.23 | 0.688
322.7 K, 49030 kPa, x1 = 0.6923 | 730.47 | 0.497
322.74 K, 24510 kPa, x1 = 0.6923 | 712.73 | 0.41
322.86 K, 98 kPa, x1 = 0.6923 | 688.08 | 0.325
322.95 K, 196130 kPa, x1 = 0.2 | 781.57 | 0.842
323.14 K, 98060 kPa, x1 = 0.2 | 743.21 | 0.525
323.23 K, 24510 kPa, x1 = 0.2 | 692.21 | 0.323
323.24 K, 49030 kPa, x1 = 0.2 | 714.09 | 0.388
323.28 K, 98 kPa, x1 = 0.2 | 664.43 | 0.256
323.53 K, 196130 kPa, x1 = 0.4823 | 791.05 | 0.962
323.71 K, 98060 kPa, x1 = 0.4823 | 753.36 | 0.589
323.72 K, 49030 kPa, x1 = 0.4823 | 723.85 | 0.434
323.73 K, 24510 kPa, x1 = 0.4823 | 705.99 | 0.358
323.86 K, 98 kPa, x1 = 0.4823 | 678.22 | 0.285
354.41 K, 196130 kPa, x1 = 0.2 | 767.99 | 0.675
354.53 K, 196130 kPa, x1 = 0.4823 | 778.99 | 0.757
354.58 K, 98060 kPa, x1 = 0.4823 | 737.84 | 0.478
354.59 K, 49030 kPa, x1 = 0.4823 | 705.39 | 0.354
354.61 K, 24510 kPa, x1 = 0.4823 | 683.97 | 0.291
354.84 K, 98060 kPa, x1 = 0.2 | 727.23 | 0.428
355.02 K, 24510 kPa, x1 = 0.2 | 671.58 | 0.259
355.04 K, 49030 kPa, x1 = 0.2 | 694.07 | 0.317
355.16 K, 98060 kPa, x1 = 0.6923 | 741.82 | 0.544
355.27 K, 49030 kPa, x1 = 0.6923 | 713.02 | 0.398
355.35 K, 196130 kPa, x1 = 0.6923 | 782.46 | 0.876
355.44 K, 24510 kPa, x1 = 0.6923 | 691.53 | 0.327
390.42 K, 196130 kPa, x1 = 0.4823 | 763 | 0.614
390.6 K, 196130 kPa, x1 = 0.6923 | 764.29 | 0.684
390.61 K, 98060 kPa, x1 = 0.4823 | 718.3 | 0.392
390.66 K, 24510 kPa, x1 = 0.6923 | 668.32 | 0.258
390.68 K, 98060 kPa, x1 = 0.6923 | 722.16 | 0.433
390.73 K, 24510 kPa, x1 = 0.4823 | 661.95 | 0.233
390.76 K, 49030 kPa, x1 = 0.4823 | 683.17 | 0.286
390.89 K, 49030 kPa, x1 = 0.6923 | 690.6 | 0.319
395.05 K, 196130 kPa, x1 = 0.2 | 750.63 | 0.535
395.31 K, 98060 kPa, x1 = 0.2 | 706.62 | 0.345
395.33 K, 49030 kPa, x1 = 0.2 | 668.64 | 0.253
395.52 K, 24510 kPa, x1 = 0.2 | 641.62 | 0.205
432.98 K, 196130 kPa, x1 = 0.2 | 733.67 | 0.451
433.17 K, 196130 kPa, x1 = 0.6923 | 744.1 | 0.549
433.2 K, 98060 kPa, x1 = 0.6923 | 698.66 | 0.349
433.33 K, 49030 kPa, x1 = 0.6923 | 664.02 | 0.255
433.38 K, 24510 kPa, x1 = 0.6923 | 641.38 | 0.204
433.51 K, 98060 kPa, x1 = 0.2 | 682.68 | 0.289
433.58 K, 49030 kPa, x1 = 0.2 | 642.37 | 0.213
433.62 K, 24510 kPa, x1 = 0.2 | 614.08 | 0.169
435.46 K, 196130 kPa, x1 = 0.4823 | 741.63 | 0.489
435.49 K, 24510 kPa, x1 = 0.4823 | 631.36 | 0.184
435.61 K, 98060 kPa, x1 = 0.4823 | 693.82 | 0.318
435.7 K, 49030 kPa, x1 = 0.4823 | 656.28 | 0.232
467.82 K, 196130 kPa, x1 = 0.4823 | 725.29 | 0.447
467.87 K, 196130 kPa, x1 = 0.2 | 715.63 | 0.403
467.95 K, 49030 kPa, x1 = 0.4823 | 636.15 | 0.207
467.96 K, 24510 kPa, x1 = 0.4823 | 610.74 | 0.162
468.04 K, 98060 kPa, x1 = 0.2 | 661.09 | 0.262
468.06 K, 98060 kPa, x1 = 0.4823 | 675.8 | 0.285
468.07 K, 49030 kPa, x1 = 0.2 | 620.58 | 0.19
468.18 K, 24510 kPa, x1 = 0.2 | 589.18 | 0.148
469.83 K, 98060 kPa, x1 = 0.6923 | 677.9 | 0.311
469.84 K, 196130 kPa, x1 = 0.6923 | 725.11 | 0.482
470.05 K, 49030 kPa, x1 = 0.6923 | 641.64 | 0.224
470.16 K, 24510 kPa, x1 = 0.6923 | 618.99 | 0.176
